The numbers were not newly measured in paper PMC8356818 (Chemical Science, 2021), which cites them from elsewhere.

For series [1] the following is noted: H4qp2 ligand, 25 °C.
The conditions of series [2]: direct stopped-flow measurements.
Assay in series [3]: not given
The source holds these as a separate data set.

Regarding `Oc1ccc(O)c(CN(CCN(Cc2ccccn2)Cc2cc(O)ccc2O)Cc2ccccn2)c1` [Complex H4qp2, N,N′-bis(2,5-dihydroxybenzyl)-N,N′-bis(2-pyridinylmethyl)-1,2-ethanediamine], the pKL1 in series [1] (KL1 = [(H5qp2)^+][H^+]/[(H6qp2)^2+]) is 4.47 (±0.08). Moreover, the pKL2 in series [1] (KL2 = [(H4qp2)][H^+]/[(H5qp2)^+]) is 7.18 (±0.03).
As to `C[C@@H]1N[C@@H]2CCCC[C@H]2NCCN[C@@H]2CCCC[C@H]2N[C@@H](C)c2cccc1n2.[Cl-].[Cl-].[Mn+2]` [Complex M40401], the catalytic rate result in series [2] is listed as “approximately 1.5 × 10^9 M^−1 s^−1”. For the same compound, the pMn (stability in water) is 4.7.
As for Mn^IIBr8TM-4-PyP^4+, the “estimated log kcat if the catalyst were fully intact” value in series [3] is listed as “exceed 8.67”. Further, in series [3] (determined by the cytochrome c assay), the log kcat is on record as 8.34. Moreover, the “Mn estimated to be lost (release of free manganese)” value (neutral pH) is given as “approximately 30%”.
